Results published in patent US20240391892A1, “A SMALL MOLECULE COMPOUND AND ITS USE AND PREPARATION METHOD” (SHANGHAI COACHCHEM TECHNOLOGY CO., LTD, priority 2022, published 2024).
Where “and” joins values, the source holds several entries; their conditions need not be identical. Equal values may be shown once.

What was measured:
HaCat cells = assay: Intracellular ROS scavenging test in UVB-irradiated HaCat cells; format: cell-based, human; conditions: UVB 20 mJ/cm2, 24 hours incubation, vs UVB control, p<0.001
Experimental: Among these factors, UV radiation stands as the most significant contributor. Skin exposed to UV radiation generates an excess of reactive oxygen species (ROS) within cells, triggering the expression of genes related to aging, instigating an inflammatory cascade, and reducing the expression of elastin and collagen proteins, leading to manifestations of photoaging like skin laxity and wrinkles. Photoaging predominantly occurs in the dermis.
UVB irradiation is administered to immortalized human keratinocytes (HaCat cells) to induce intracellular reactive oxygen species (ROS) generation. The UVB dose applied to HaCat cells is 20 mJ/cm2. Following the UVB treatment, varying concentrations of Retinyl 4-t-Butylcyclohexanol test samples are added to the cells and incubated for 24 hours. ROS levels within the cells are assessed using a ROS detection kit.
Graph Pad Prism was used for statistical plotting, and the results were presented as Mean±SD. Statistical analysis was conducted using the t-test. A significance level of p<0.05 was considered statistically significant, where *p<0.05, ** p<0.0 1 (0.005<** p<0.01), and *** p<0.001, indicating increased significance as the p-value decreases. When employing the t-test for statistical analysis, the comparison between the UVB control group and the Control group was represented as # (p<0.001 indicated as ###). […]

[1] = In vitro DPPH free radical scavenging test; format: biochemical; design: DPPH Free Radical Scavenging Rate (%v/v): unit not given here; conditions: for DPPH Free Radical Scavenging Rate (%v/v): mean ± SD; for DPPH Free Radical Scavenging Rate (%): replicate wells
From the text: The DPPH radical scavenging assay is an in vitro method used to evaluate antioxidant activity. DPPH is a stable free radical in organic solvents and appears purple in methanol or ethanol, with maximum absorption at a wavelength of 517 nm. The DPPH assay is based on the ability of an antioxidant to donate an electron to the DPPH radical, converting its purple color to yellow. The degree of absorbance change at 517 nm corresponds to the extent of the free radical scavenging activity, meaning the stronger the scavenging ability of the antioxidant, the lower the absorbance.
Using ascorbic acid (VC) as a system reference, dilute it with PBS to obtain five concentrations: 12.5, 25, 50, 100, and 200 μg/mL. Perform the test and calculations according to the procedure outlined in 3.3.2. Plot the reference curve with the concentration of the reference substance on the x-axis and the DPPH free radical scavenging rate on the y-axis.
Prepare the samples into the respective concentrations of test solutions. Prepare the reaction system by adding the specified amount of each reagent mentioned in Table 1, mix thoroughly. For each concentration, set up three replicate wells and one blank control well.
The reaction system is placed at room temperature and allowed to react in the dark for 30 minutes. After the reaction is complete, the absorbance (OD value) is measured at 515 nm. The formula to calculate the scavenging rate of the sample against DPPH free radicals is as follows:
[formula] [formula] • Where: • C1=Absorbance value of the blank with DPPH • C2=Absorbance value of the blank without DPPH • T1=Absorbance value of the sample with DPPH • T2=Absorbance value of the sample without DPPH

[2] = Stability test under light and temperature, content by HPLC-DAD; format: physicochemical
Experimental: To compare the stability of Retinyl-trans-4-tert-Butylcyclohexanol and retinol […] under different conditions.
A certain amount of retinol and Retinyl-trans-4-tert-Butylcyclohexanol is taken and placed under conditions of light exposure, 4° C., 25° C., 45° C., and 50° C. for 28 days. Samples are periodically collected to determine their content and examine the influence of light and temperature on their stability.
High-Performance Liquid Chromatography with Diode Array Detection (HPLC-DAD), Electronic Balance (precision of 0.01 mg), Chromatographic Column (Welch Ultimate series XB-C18 column, 250 mm*4.6 mm, 5 μm), Several volumetric flasks.
(§1) Accurately weigh approximately 0.1g of Retinyl-trans-4-tert-Butylcyclohexanol samples obtained under conditions of light exposure, 4° C., 25° C., 45° C., and 50° C. into a 100 mL brown volumetric flask. Add an appropriate amount of acetonitrile while avoiding light, ultrasonicate, dilute to the mark, shake well, and prepare two parallel samples for each condition.
as §1, with “0.1 g” for “0.1g”, “retinol” for “Retinyl-trans-4-tert-Butylcyclohexanol”
Operate according to the procedures for high-performance liquid chromatography (HPLC) usage and maintenance: • I) Run the blank solvent, inject 2 times, record the chromatogram for up to 30 minutes; • II) Run at least 3 injections of the control solution 1, record the chromatogram for up to 30 minutes; • III) Run the control solution 2, inject 2 times, record the chromatogram for up to 30 minutes; • IV) Inject 2 samples of the test solution, record the chromatogram for up to 30 minutes; • V) Adjust the chromatogram scale, integrate, and print. […]

| Content after storage ([2]; 28 days at 4° C.) | Content after storage ([2]; 28 days at room temperature) | Stability compared with retinol ([2]; light exposure, room temperature, 45° C. and 50° C., 28 days, not at 4° C.) | SMILES | UVB-induced intracellular ROS levels (HaCat cells) | DPPH free radical scavenging compared to the control group ([1]; concentrations 0.02% to 4%, p<0.001) | DPPH Free Radical Scavenging Rate (%v/v) ([1]; sample concentration 0.02 %v/v) | DPPH Free Radical Scavenging Rate (%v/v) ([1]; sample concentration 0.1 %v/v) | DPPH Free Radical Scavenging Rate (%v/v) ([1]; sample concentration 0.5 %v/v) | DPPH Free Radical Scavenging Rate (%v/v) ([1]; sample concentration 2 %v/v) | DPPH Free Radical Scavenging Rate (%v/v) ([1]; sample concentration 4 %v/v) | DPPH Free Radical Scavenging Rate (%) ([1]; concentration 12.5 μg/mL) | DPPH Free Radical Scavenging Rate (%) ([1]; concentration 25 μg/mL) | DPPH Free Radical Scavenging Rate (%) ([1]; concentration 50 μg/mL) | DPPH Free Radical Scavenging Rate (%) ([1]; concentration 100 μg/mL) | DPPH Free Radical Scavenging Rate (%) ([1]; concentration 200 μg/mL) |
| --- | --- | --- | --- | --- | --- | --- | --- | --- | --- | --- | --- | --- | --- | --- | --- |
| above 98% | above 98% | significantly higher | CC1=C(/C=C/C(C)=C/C=C/C(C)=C/C(=O)O[C@H]2CC[C@H](C(C)(C)C)CC2)C(C)(C)CCC1 [Retinyl 4-trans-t-Butylcyclohexanol, retinoic acid trans-4-tert-butylcyclohexyl ester] | effectively reduced | statistically significant increase | 9.87 ± 3.44 | 15.91 ± 1.25 | 36.72 ± 1.98 | 48.12 ± 1.07 | 83.96 ± 1.22 | – | – | – | – | – |
| – | – | – | O=C1O[C@H]([C@@H](O)CO)C(O)=C1O [ascorbic acid] | – | – | – | – | – | – | – | 20.55% and 18.55% and 20.32% | 30.26% and 31.17% and 32.98% | 64.58% and 65.09% and 62.73% | 101.32% and 95.11% and 97.07% | 101.28% and 92.01% and 108.75% |
